Assay results as given in patent publication US10053484B2, “Heterocycle-substituted xanthene dyes” (Biotium, Inc., priority 2009, dated 2018).
Entries after “also recorded” stand apart in the source; their conditions may differ.

Experiments:
[1] = Measurement of absorption and emission spectra of free dyes or dye-protein conjugates; type: physicochemical; details: for Absorption Wavelengths / Emission Wavelengths: in PBS
Description: The absorption spectra of free dyes or dye-antibody conjugates were measured on Beckman Coulter DU800 in pH 7.4 PBS. The concentrations of the dyes or conjugates were adjusted so that the maximal absorbance was around 1.0. The fluorescence emission spectra of the free dyes and conjugates were measured on a Hitachi F4500.

[2] = Photostability comparison of dye-antibody conjugates on stained fixed Jurkat cells (microscopy, Cy5 filter set); type: physicochemical; details: for photostability: goat anti-mouse IgG conjugates on fixed Jurkat cells, continuous illumination, relative fluorescence vs. time (FIG. 5)
Description: Jurkat cells were fixed and stained with intracellular mouse anti-human CD3 primary antibody (0.375 ug) followed by 1 ug of goat-anti-mouse IgG conjugated to AlexaFluor633 (DOL 2.3), compound No. 6 (DOL 2.3), DyLight649 (DOL˜6), or Alexa Fluor 647 (DOL˜6). The DOL for each conjugate was the optimal value for each dye. Images were taken on an Olympus mercury arc lamp microscope using a Cy5 filter set. The relative fluorescence vs. time for each sample was plotted (FIG. 5). Traditionally, sulfonated cyanine dyes, such as Alexa Fluor 647 and DyLight 647, have been used for the 633 nm excitation by the HeNe laser with red emission. More recently, rhodamine-based Alexa Fluor 633 dye has become commercially available.

[3] = cited from earlier work; for absorption wavelength: commercial cyanine dyes used for the 633 nm laser
HeLa cells = assay: Mitochondrial staining of live HeLa cells; type: cell-based; details: 200 nM compound No. 16 or 10 uM compound No. 74, DMEM, 30 minutes, 37° C. (FIG. 9)
Description: HeLa cells were cultured for 2 days at 37° C., 5% CO2. Live cells were stained with 200 nM compound No. 16 or 10 uM compound No. 74 in DMEM media for 30 minutes at 37° C., 5% CO2. Cells were washed in fresh medium and cells were viewed on a mercury arc lamp microscope using a Cy5 filter set. Images were taken using a CCD camera and Image Pro Express software.

Jurkat cells = assay: Mitochondrial staining as a function of membrane potential (flow cytometry, with/without CCCP); type: cell-based; details: 50 nM dye with and without 50 uM CCCP, 30 minutes, FL4 channel (FIG. 10)
Description: Live Jurkat cells were stained with 50 nM Compound No. 16 with and without 50 uM carbonyl cyanide m-chlorophenyl hydrozone (CCCP) for 30 minutes prior to analysis by flow cytometry on the FL4 channel of a BD FACS Calibur. Treatment with CCCP disrupts the mitochondrial membrane potential. The graph depicts the relative geometric mean fluorescence of the stained population treated without (Control) or with 50 uM CCCP. […] The membrane potential-dependent mitochondrial staining by compound No. 16 makes the dye useful for assessing the health of cells as only healthy cells have functional mitochondria and have normal membrane potential. For example, cells undergoing apoptosis are known to lose membrane potential.

[4] = Measurement of absorption and emission spectra of free dyes or dye-protein conjugates; type: physicochemical; details: in MeOH
[5] = known xanthene dyes, background

| Compound | Absorption Wavelengths [1] | Emission Wavelengths [1] | also measured |
| --- | --- | --- | --- |
| CCN1c2cc3c(cc2C(CS(=O)(=O)[O-])=CC1(C)C)C(c1nccn1CCCCCC(=O)ON1C(=O)CCC1=O)=c1cc2c(cc1O3)=[N+](CCCS(=O)(=O)O)C(C)(C)C=C2CS(=O)(=O)O [compound 10] | 622 nm | 649 nm |  |
| CC1CC(C)(C)Nc2c1cc1c(c2S(=O)(=O)O)Oc2c(S(=O)(=O)O)c3c(cc2=C1c1[nH]cnc1C(=O)O)C(C)CC(C)(C)N=3 (centres unmarked) [Compound No. 3] | 529 nm | 548 nm |  |
| CC1CC(C)(C)Nc2c1cc1c(c2S(=O)(=O)O)Oc2c(S(=O)(=O)O)c3c(cc2=C1c1nccn1CCCCCC(=O)ON1C(=O)CCC1=O)C(C)CC(C)(C)N=3 (centres unmarked) [Compound No. 2] | 559 nm | 579 nm |  |
| Alexa Fluor 647 [reference compound] |  |  | time to being essentially totally bleached ([2]; goat anti-mouse IgG conjugates on fixed Jurkat cells (FIG. 5)): about 1 minute; photostability [2]: poor photostability; absorption wavelength [3]: ~650 nm |
| CCN1c2cc3c(cc2C(C)=CC1(C)C)C(c1nccn1Cc1ccc(CCl)cc1)=c1cc2c(cc1O3)=[N+](CC)C(C)(C)C=C2C.[Cl-] [Compound No. 9] | 622 nm | 648 nm |  |
| CCN1c2cc3c(cc2C(C)=CC1(C)C)C(c1nccs1)=c1cc2c(cc1O3)=[N+](CC)C(C)(C)C=C2C [compound 85] | 627 nm | 698 nm |  |
| CCN1c2cc3c(cc2C(C)=CC1(C)C)C(c1nccn1C)=c1cc2c(cc1O3)=[N+](CC)C(C)(C)C=C2C [Compound No. 16] |  |  | localization of dye in live cells (HeLa cells): concentrated in the mitochondria; membrane potential dependence of mitochondrial staining (Jurkat cells): stains mitochondria in a membrane potential-dependent fashion; also recorded: sensitive to disruption of the mitochondrial membrane potential; Absorption Wavelengths [4]: 622 nm; Emission Wavelengths [4]: 648 nm |
| CCN1c2cc3c(cc2C(C)=CC1(C)C)C(c1ccncc1C(=O)[O-])=c1cc2c(cc1O3)=[N+](CCCCCC(=O)O)C(C)(C)C=C2C [compound 23] | 599 nm | ~620 nm |  |
| CC1(C)C=C(CS(=O)(=O)O)c2cc3c(cc2=N1)Oc1cc2c(cc1C=3c1nccn1CCCCCC(=O)ON1C(=O)CCC1=O)C(CS(=O)(=O)O)=CC(C)(C)N2 [Compound No. 4] | 603 nm | 626 nm |  |
| CCN1/C(=C/C=C/C=C/C2=[N+](CCCCCC(=O)O)c3ccc(S(=O)(=O)O)cc3C2(C)C)C(C)(C)c2cc(S(=O)(=O)[O-])ccc21 [Cy5] |  |  | absorption wavelength [3]: ~650 nm |
| CCN1c2cc3c(cc2C(CS(=O)(=O)[O-])=CC1(C)C)C(c1n(CC(=O)N2CCC(C(=O)ON4C(=O)CCC4=O)CC2)cc[n+]1CCCS(=O)(=O)O)=c1cc2c(cc1O3)=[N+](CC)C(C)(C)C=C2CS(=O)(=O)[O-] [compound 72] | 660 nm | 681 nm |  |
| carboxy-rhodamine 110 |  |  | absorption maxima [3, 5]: 502 nm; emission maxima [3, 5]: 524 nm |
| C/N=c1\cc2oc3cc(NC)c(S(=O)(=O)O)cc3c(-c3nccn3CCCCCC(=O)O)c-2cc1S(=O)(=O)O [compound 77] | 578 nm⁻¹ |  |  |
| CCN1c2cc3c(cc2C(C)=CC1(C)C)C(c1nc2ccccc2n1C)=c1cc2c(cc1O3)=[N+](CC)C(C)(C)C=C2C.[Cl-] [Compound No. 70] |  |  | Absorption Wavelengths [4]: 628 nm; Emission Wavelengths [4]: 656 nm |
| CC1CC(C)(C)Nc2c1cc1c(c2S(=O)(=O)[O-])Oc2c(S(=O)(=O)O)c3c(cc2=C1c1n(CCCCCC(=O)ON2C(=O)CCC2=O)cc[n+]1C)C(C)CC(C)(C)N=3 (centres unmarked) [Compound No. 29] | 592 nm | 615 nm |  |
| CC1(C)C=C(CS(=O)(=O)O)c2cc3c(cc2=N1)Oc1cc2c(cc1C=3c1n(CCCCCC(=O)ON3C(=O)CCC3=O)cc[n+]1CCCS(=O)(=O)O)C(CS(=O)(=O)[O-])=CC(C)(C)N2 [compound 71] | 642 nm | 662 nm |  |
| CCN1c2cc3c(cc2C(CS(=O)(=O)[O-])=CC1(C)C)C(c1nccn1CCCCCC(=O)ON1C(=O)CCC1=O)=c1cc2c(cc1O3)=[N+](CC)C(C)(C)C=C2CS(=O)(=O)O [Compound No. 5] | 622 nm | 649 nm |  |
| N=c1ccc2c(-c3[nH]cnc3C(=O)O)c3ccc(N)cc3oc-2c1 [compound 21] | 485 nm | 508 nm |  |
| CCN1c2cc3c(cc2C(C)=CC1(C)C)C(c1cocn1)=c1cc2c(cc1O3)=[N+](CC)C(C)(C)C=C2C [compound 87] | 647 nm | 676 nm |  |
| CC1CC(C)(C)Nc2c1cc1c(c2S(=O)(=O)[O-])Oc2c(S(=O)(=O)O)c3c(cc2=C1c1n(CCCCCC(=O)ON2C(=O)CCC2=O)cc[n+]1CCCS(=O)(=O)O)C(C)CC(C)(C)N=3 (centres unmarked) [compound 76] | 593 nm | 614 nm |  |
| CC1(C)C=C(CS(=O)(=O)[O-])c2cc3c(c4c2N1CCC4)Oc1c2c4c(cc1=C3c1nccn1CCCCCC(=O)ON1C(=O)CCC1=O)C(CS(=O)(=O)O)=CC(C)(C)[N+]=4CCC2 [Compound No. 7] | 638 nm | 660 nm |  |
| O=C(O)CCCCCn1ccnc1-c1c2cc/c(=N/CC(F)(F)F)cc-2oc2cc(NCC(F)(F)F)ccc12 [compound 84] | 533 nm | 550 nm |  |
| CCN1c2cc3c(cc2C(C)=CC1(C)C)C(c1n(C)cc[n+]1C)=c1cc2c(cc1O3)=[N+](CC)C(C)(C)C=C2C [Compound No. 74] |  |  | localization of dye in live cells (HeLa cells): concentrated in the mitochondria; Absorption Wavelengths [4]: 660 nm; Emission Wavelengths [4]: 688 nm |
| CC1N=c2c(cc3c(c2S(=O)(=O)O)Oc2c(cc4c(c2S(=O)(=O)O)NC(C)C4(C)C)C=3c2nccn2CCCCCC(=O)ON2C(=O)CCC2=O)C1(C)C (centres unmarked) [Compound No. 1] | 548 nm | 571 nm |  |
| CC1(C)C=C(CS(=O)(=O)[O-])c2cc3c(c4c2N1CCC4)Oc1c2c4c(cc1=C3c1n(CCCCCC(=O)ON3C(=O)CCC3=O)cc[n+]1CCCS(=O)(=O)O)C(CS(=O)(=O)[O-])=CC(C)(C)[N+]=4CCC2 [Compound No. 75] | 680 nm | 701 nm |  |
| CCN1c2cc3c(cc2C(CS(=O)(=O)O)=CC1(C)C)C(c1nccn1CCCCCC(=O)NCCOCCOCCOCCOCCOCCOCCOCCOCCOCCOCCOCCOC(=O)ON1C(=O)CCC1=O)=c1cc2c(cc1O3)=[N+](CC)C(C)(C)C=C2CS(=O)(=O)[O-] [Compound No. 6] | 622 nm | 649 nm | absorption peak ([1]; FIG. 1: conjugated to goat anti-mouse IgG in PBS): about 633 nm; photostability [2]: significantly more photostable than DyLight 633; also recorded: approximately similar stability to that of Alexa Fluor 633; also recorded: very photostable |
